Structures are written as SMILES. Where a name gives a salt, the structure may show the parent alone. Where only a bound is given, the exact number is not on record here.

One assay concerns the target T1, human SARM1(50-724) (Homo sapiens, UniProt Q6SZW1).
T1 construct: 40 nM human SARM1(50-724)
T1 sequence (Q6SZW1 50-724): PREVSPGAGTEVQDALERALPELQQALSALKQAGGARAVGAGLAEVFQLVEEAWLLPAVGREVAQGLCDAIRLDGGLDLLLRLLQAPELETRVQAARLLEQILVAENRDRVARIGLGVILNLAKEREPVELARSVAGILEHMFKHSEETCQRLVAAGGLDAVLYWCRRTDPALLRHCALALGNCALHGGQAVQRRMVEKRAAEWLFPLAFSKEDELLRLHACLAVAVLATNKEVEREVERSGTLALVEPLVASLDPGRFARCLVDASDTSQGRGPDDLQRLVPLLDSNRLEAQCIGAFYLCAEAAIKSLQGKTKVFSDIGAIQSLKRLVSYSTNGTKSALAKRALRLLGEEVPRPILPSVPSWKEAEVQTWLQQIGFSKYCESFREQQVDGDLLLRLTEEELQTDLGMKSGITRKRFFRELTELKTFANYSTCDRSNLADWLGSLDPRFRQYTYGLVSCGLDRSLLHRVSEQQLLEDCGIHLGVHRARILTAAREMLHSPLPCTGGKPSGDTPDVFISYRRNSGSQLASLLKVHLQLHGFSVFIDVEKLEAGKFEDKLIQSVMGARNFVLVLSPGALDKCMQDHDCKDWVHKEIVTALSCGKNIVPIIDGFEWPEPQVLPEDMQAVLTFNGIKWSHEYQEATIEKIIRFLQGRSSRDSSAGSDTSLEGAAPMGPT
The assay is described as follows: SARM1 biological assay: HPLC measurement of NAD and NAM peak areas. Format: biochemical.
Conditions: not given
On the procedure:
Each reaction was run at a volume of 20 μL containing 50 μM compound (dissolved in DMSO; final concentration of DMSO is 1% v/v), 40 nM human SARM1(50-724), 0.3 mM NMN, 20 μM NAD, 1 mM TCEP, 25 mM HEPES pH 7.4, 10 mM KCl and 10 mM MgCl2. The reaction was incubated at room temperature for 60 minutes and quenched with 20 μL of 0.4% formic acid. The samples were run on Agilent HPLC 1260 Infinity II with Synergi 2.5 μM Fusion-RP 100 Å (100×3.0 mm) LC column from Phenomenex. Total run time for each sample was 4 minutes. The run was isocratic with 1.5% methanol in 40 mM ammonium acetate pH 6.0. Samples were run at a flow rate of 0.8 mL/min at 55° C. Peak areas of NAD and NAM were determined using OpenLAB CDS (Chem Station edition) software. For dose-response, the compound was diluted serially 1:3 in DMSO and added to the reaction starting at a final compound concentration of 100 μM in 1% DMSO.
Take `Fc1cnccc1Cc1c[nH]c(C2CCC(F)(F)C2)n1` (stereo not drawn) [Example 18A, 4-((2-(3,3-Difluorocyclopentyl)-1H-imidazol-4-yl)methyl)-3-fluoropyridine]: the IC50 lay in the range of 1000 to 10000 nM.
For the compound `FC(F)(F)C1CC1c1nc(Cc2ccncc2)c[nH]1` (stereo not drawn) [Example 26, 4-((2-(2-(Trifluoromethyl)cyclopropyl)-1H-imidazol-4-yl)methyl)pyridine], the IC50 fell in the range of 1000 to 10000 nM.
For the compound `F[C@H]1C[C@H](c2nc(Cc3ccncc3)c[nH]2)C1` [Example 30, (trans)-4-((2-(3-Fluorocyclobutyl)-1H-imidazol-4-yl)methyl)pyridine], the IC50 lay in the range of 1000 to 10000 nM.
Take `FC1(F)CNC(c2nc(Cc3ccncc3)c[nH]2)C1` (stereo not drawn) [Example 32, 4-((2-(4,4-Difluoropyrrolidin-2-yl)-1H-imidazol-4-yl)methyl)pyridine]: the IC50 lay within 1000 to 10000 nM.
With `CC(c1ccncc1)c1c[nH]c(C(=O)C(F)(F)F)n1` (racemic) [Example 22, 2,2,2-Trifluoro-1-(4-(pyridine-4-yl)ethyl)-1H-imidazol-2-yl)ethan-1-one hydrochloride], the IC50 is under 1000 nM.
With `FC1(F)CC1(F)c1nc(Cc2ccncc2)c[nH]1` (stereo not drawn) [Example 40, 4-((2-(1,2,2-Trifluorocyclopropyl)-1H-imidazol-4-yl)methyl)pyridine], the IC50 is under 1000 nM.
With `F[C@@]1(Cl)C[C@@H]1c1nc(Cc2ccncc2)c[nH]1` (single isomer, unassigned) [Example 39A], the IC50 is under 1000 nM.
The same measure, in the same setting: for `ClC1(Cl)CC(c2nc(Cc3ccncc3)c[nH]2)C1` [Example 19A, 4-((2-(3,3-Dichlorocyclobutyl)-1H-imidazol-4-yl)methyl)pyridine] the value was under 1000 nM; for `OC1(c2nc(Cc3ccncc3)c[nH]2)CCC(F)(F)CC1` [Example 12], 1000 to 10000 nM.
As for `F[C@H]1C[C@@H](c2nc(Cc3ccncc3)c[nH]2)C1` [Example 29, (cis)-4-((2-(3-Fluorocyclobutyl)-1H-imidazol-4-yl)methyl)pyridine], the IC50 was under 1000 nM.
The same measure, in the same setting: for `FC1(F)CN(Cc2nc(Cc3ccncc3)c[nH]2)C1` [Example 7] the value was 1000 to 10000 nM.
As to `FC1(F)CC[C@@H](c2nc(Cc3ccncc3)c[nH]2)C1` (single isomer, unassigned) [Example 11B], the IC50 lay within 1000 to 10000 nM.
For `FC1(F)CCN(c2nc(Cc3ccncc3)c[nH]2)C1` [Example 3], the IC50 lay within 1000 to 10000 nM.
The same measure, in the same setting: for `FC1(F)CC(c2nc(Cc3ccncc3)c[nH]2)C1` [Example 15A, 4-((2-(3,3-Difluorocyclobutyl)-1H-imidazol-4-yl)methyl)pyridine] the value was under 1000 nM; for `CC1(F)CC(c2nc(Cc3ccncc3)c[nH]2)C1` (stereo not drawn) [Example 9, 4-((2-(3-Fluoro-3-methylcyclobutyl)-1H-imidazol-4-yl)methyl)pyridine], under 1000 nM; for `F[C@]1(Cl)C[C@@H]1c1nc(Cc2ccncc2)c[nH]1` (single isomer, unassigned) [Example 39B], under 1000 nM.
The same measure, in the same setting: under `Fc1cnccc1Cc1c[nH]c(C2CCC(F)(F)CC2)n1` [Example 17A, 4-((2-(4,4-Difluorocyclohexyl)-1H-imidazol-4-yl)methyl)-3-fluoropyridine] stands 1000 to 10000 nM.
For the compound `FC1(F)CC1c1nc(Cc2ccncc2)c[nH]1` (single isomer, unassigned) [Example 5A], the IC50 was under 1000 nM.
`FC1(F)CC[C@H](c2nc(Cc3ccncc3)c[nH]2)C1` (single isomer, unassigned) [Example 11A]: the IC50 is under 1000 nM.
On to `F[C@]1(Cl)C[C@H]1c1nc(Cc2ccncc2)c[nH]1` (single isomer, unassigned) [Example 39D], for which the IC50 is under 1000 nM.
`ClC1(Cl)CC(c2nc(Cc3ccncc3)co2)C1` [Example 19B, 2-(3,3-Dichlorocyclobutyl)-4-(pyridine-4-ylmethyl)oxazole]: the IC50 lay in the range of 1000 to 10000 nM.
Regarding `C[C@]1(c2nc(Cc3ccncc3)c[nH]2)CC1(F)F` (single isomer, unassigned) [Example 10A], the IC50 is under 1000 nM.
Still for that read-out and setting: under `ClC1CC(c2nc(Cc3ccncc3)c[nH]2)C1` (stereo not drawn) [Example 34, 4-((2-(3-Chlorocyclobutyl)-1H-imidazol-4-yl)methyl)pyridine] stands under 1000 nM.
`FC(F)(F)[C@H]1C[C@H](c2nc(Cc3ccncc3)c[nH]2)C1` (single isomer, unassigned) [Example 31B, (trans)-4-((2-(3-(Trifluoromethyl)cyclobutyl)-1H-imidazol-4-yl)methyl)pyridine]: the IC50 fell in the range of 1000 to 10000 nM.
On to `ClC1(Cl)C[C@H]1c1nc(Cc2ccncc2)c[nH]1` (single isomer, unassigned) [Example 33B], for which the IC50 was under 1000 nM.
As to `FC(F)(F)[C@H]1C[C@@H](c2nc(Cc3ccncc3)c[nH]2)C1` (single isomer, unassigned) [Example 31A, (cis)-4-((2-(3-(Trifluoromethyl)cyclobutyl)-1H-imidazol-4-yl)methyl)pyridine], the IC50 was in the range of 1000 to 10000 nM.
`FC1(F)CCN(c2nc(Cc3ccncc3)c[nH]2)CC1` [Example 1]: the IC50 was in the range of 1000 to 10000 nM.
As to `FC1(F)CC(c2nc(Cc3ccncc3)co2)C1` [Example 15B, 2-(3,3-Difluorocyclobutyl)-4-(pyridin-4-ylmethyl)oxazole], the IC50 lay within 10000 to 100000 nM.
As to `FC(F)(F)O[C@H]1C[C@@H](c2nc(Cc3ccncc3)c[nH]2)C1` [Example 37A, (cis)-4-((2-(3-(Trifluoromethoxy)cyclobutyl)-1H-imidazole-4-yl)methyl)pyridine], the IC50 is under 1000 nM.
As for `FC1(F)CCC(c2nc(Cc3ccncc3)c[nH]2)CC1` [Example 13, 4-((2-(4,4-Difluorocyclohexyl)-1H-imidazol-4-yl)methyl)pyridine], the IC50 fell in the range of 1000 to 10000 nM.
Take `Fc1cnccc1Cc1c[nH]c(C2CC2(F)F)n1` (stereo not drawn) [Example 14, 4-((2-(2,2-Difluorocyclopropyl)-1H-imidazol-4-yl)methyl)-3-fluoropyridine]: the 50% inhibitory concentration (IC50) is under 1000 nM.
As for `Fc1cnccc1Cc1coc(C2CCC(F)(F)C2)n1` (stereo not drawn) [Example 18B, 2-(3,3-Difluorocyclopentyl)-4-((3-fluoropyridin-4-yl)methyl)oxazole], the IC50 was in the range of 10000 to 100000 nM.
As for `FC1(F)CC1Cc1nc(Cc2ccncc2)co1` (stereo not drawn) [Example 20B, 2-((2,2-Difluorocyclopropyl)methyl)-4-(pyridine-4ylmethyl)oxazole], the IC50 was 10000 to 100000 nM.
`Fc1cnccc1Cc1coc(C2CCC(F)(F)CC2)n1` [Example 17B, 2-(4,4-Difluorocyclohexyl)-4-((3-fluoropyridin-4-yl)methyl)oxazole]: the IC50 lay within 10000 to 100000 nM.
Take `FC(F)(F)[C@H]1CCO[C@H]1c1nc(Cc2ccncc2)c[nH]1` (relative stereo) [Example 27, (cis)-4-((2-(3-(trifluoromethyl)tetrahydrofuran-2-yl)-1H-imidazol-4-yl)methyl)pyridine]: the IC50 is 10000 to 100000 nM.
Still for that read-out and setting: for `OC1(C(F)(F)F)CC(c2nc(Cc3ccncc3)c[nH]2)C1` (stereo not drawn) [Example 8, 3-(4-(Pyridin-4-ylmethyl)-1H-imidazol-2-yl)-1-(trifluoromethyl)cyclobutan-1-ol] the value was 1000 to 10000 nM.
On the same count and under the same terms, under `Fc1cnccc1Cc1c[nH]c(C2CC(F)(F)C2)n1` [Example 4, 4-((2-(3,3-Difluorocyclobutyl)-1H-imidazol-4-yl)methyl)-3-fluoropyridine] stands under 1000 nM; under `FC(F)(F)C1(Cc2nc(Cc3ccncc3)c[nH]2)CC1` [Example 25], under 1000 nM; under `C[C@H](c1ccncc1)c1c[nH]c(C(=O)C(F)(F)F)n1` (single isomer, unassigned) [Example 23A, hydrochloride], under 1000 nM.
As for `C[C@@H](c1ccncc1)c1c[nH]c(C(=O)C(F)(F)F)n1` (single isomer, unassigned) [Example 23B, hydrochloride], the IC50 is 1000 to 10000 nM.
For the compound `N#CC1CC(c2nc(Cc3ccncc3)c[nH]2)C1` [Example 35B, (trans)-(1S, 3S)-3-(4-Pyridin-4ylmethyl)-1H-imidazol-2-yl)cyclobutane-1-carbonitrile], the IC50 is under 1000 nM.

Still in this assay, the particulars now being: 40 nM human SARM1(50-724), 0.3 mM NMN, 20 μM NAD, 60 min at room temperature; dose-response 1:3 serial dilution from 100 μM; read-out: Average IC50.
For the compound `N#C[C@H]1C[C@@H](c2nc(Cc3ccncc3)c[nH]2)C1` [Example 35A], the IC50 lay within 1000 to 10000 nM.

(Values after patent US20260285834A1, “SUBSTITUTED PYRIDINE DERIVATIVES AS SARM1 INHIBITORS” (Nura Bio, Inc., priority 2022, published 2026).)
